The text below walks through data of the NIST ThermoML archive (doi:10.1021/je800618x).

± gives the expanded uncertainty stated by the source.

The conditions of the data set: Crystal; DTA.

Take `CC[n+]1ccccc1.F[P-](F)(F)(F)(F)F` [1-ethylpyridinium hexafluorophosphate]: the Normal melting temperature stood at 103.20 ± 0.41 °C.
